# Laboratory results published in the kinase profiling compilation of Christmann-Franck et al. (2016).
# Tests used:
# Assay in all cases: radiometric filter-binding kinase assay
# EPHA4 (human) = EPHA4 (human) (UniProt P54764)
# EPHB2 (human) = EPHB2 (human) (UniProt P29323)
# PAK7 (human) = PAK7 (human) (UniProt Q9P286)
# MST4 (human) = MST4 (human) (UniProt Q9P289)
# RIPK2 (human) = RIPK2 (human) (UniProt O43353)
# JAK2 JH1 JH2 (human) = JAK2 JH1 JH2 (human) (UniProt O60674)
# INSR (human) = INSR (human) (UniProt P06213)
# PRKCA (human) = PRKCA (human) (UniProt P17252)
# ERBB4 (human) = ERBB4 (human) (UniProt Q15303)
# MINK1 (human) = MINK1 (human) (UniProt Q8N4C8)
# PHKG1 (human) = PHKG1 (human) (UniProt Q16816)
# SRPK1 (human) = SRPK1 (human) (UniProt Q96SB4)
# PRKACA (human) = PRKACA (human) (UniProt P17612)
# NEK2 (human) = NEK2 (human) (UniProt P51955)
# MAP2K1 (human) = MAP2K1 (human) (UniProt Q02750)
# LCK (mouse) = details: accession and sequence are those of the human protein
# EPHA2 (human) = EPHA2 (human) (UniProt P29317)
# BTK (human) = BTK (human) (UniProt Q06187)
# HIPK3 (human) = HIPK3 (human) (UniProt Q9H422)
# BRSK1 (human) = BRSK1 (human) (UniProt Q8TDC3)
# MKNK1 (human) = MKNK1 (human) (UniProt Q9BUB5)
# NUAK1 (human) = NUAK1 (human) (UniProt O60285)
# INSRR (human) = INSRR (human) (UniProt P14616)
# MAPK15 (human) = MAPK15 (human) (UniProt Q8TD08)
# RPS6KA5 KD1 KD2 (human) = RPS6KA5 KD1 KD2 (human) (UniProt O75582)
# CSK (human) = CSK (human) (UniProt P41240)
# MARK1 (human) = MARK1 (human) (UniProt Q9P0L2)
# CDK2 CCNA2 (human) = CDK2 CCNA2 (human) (UniProt P20248+P24941)
# DYRK2 (human) = DYRK2 (human) (UniProt Q92630)
# NEK6 (human) = NEK6 (human) (UniProt Q9HC98)
# CAMKK2 (human) = CAMKK2 (human) (UniProt Q96RR4)
# CaMK1 (human) = CaMK1 (human) (UniProt Q14012)
# MAPKAPK2 (human) = MAPKAPK2 (human) (UniProt P49137)
# PRKAA1 or PRKAA2 (rat) = details: accession and sequence are those of the human protein
# MARK2 (human) = MARK2 (human) (UniProt Q7KZI7)
# Chain of INSR (human) (P06213 whole entry, looked up): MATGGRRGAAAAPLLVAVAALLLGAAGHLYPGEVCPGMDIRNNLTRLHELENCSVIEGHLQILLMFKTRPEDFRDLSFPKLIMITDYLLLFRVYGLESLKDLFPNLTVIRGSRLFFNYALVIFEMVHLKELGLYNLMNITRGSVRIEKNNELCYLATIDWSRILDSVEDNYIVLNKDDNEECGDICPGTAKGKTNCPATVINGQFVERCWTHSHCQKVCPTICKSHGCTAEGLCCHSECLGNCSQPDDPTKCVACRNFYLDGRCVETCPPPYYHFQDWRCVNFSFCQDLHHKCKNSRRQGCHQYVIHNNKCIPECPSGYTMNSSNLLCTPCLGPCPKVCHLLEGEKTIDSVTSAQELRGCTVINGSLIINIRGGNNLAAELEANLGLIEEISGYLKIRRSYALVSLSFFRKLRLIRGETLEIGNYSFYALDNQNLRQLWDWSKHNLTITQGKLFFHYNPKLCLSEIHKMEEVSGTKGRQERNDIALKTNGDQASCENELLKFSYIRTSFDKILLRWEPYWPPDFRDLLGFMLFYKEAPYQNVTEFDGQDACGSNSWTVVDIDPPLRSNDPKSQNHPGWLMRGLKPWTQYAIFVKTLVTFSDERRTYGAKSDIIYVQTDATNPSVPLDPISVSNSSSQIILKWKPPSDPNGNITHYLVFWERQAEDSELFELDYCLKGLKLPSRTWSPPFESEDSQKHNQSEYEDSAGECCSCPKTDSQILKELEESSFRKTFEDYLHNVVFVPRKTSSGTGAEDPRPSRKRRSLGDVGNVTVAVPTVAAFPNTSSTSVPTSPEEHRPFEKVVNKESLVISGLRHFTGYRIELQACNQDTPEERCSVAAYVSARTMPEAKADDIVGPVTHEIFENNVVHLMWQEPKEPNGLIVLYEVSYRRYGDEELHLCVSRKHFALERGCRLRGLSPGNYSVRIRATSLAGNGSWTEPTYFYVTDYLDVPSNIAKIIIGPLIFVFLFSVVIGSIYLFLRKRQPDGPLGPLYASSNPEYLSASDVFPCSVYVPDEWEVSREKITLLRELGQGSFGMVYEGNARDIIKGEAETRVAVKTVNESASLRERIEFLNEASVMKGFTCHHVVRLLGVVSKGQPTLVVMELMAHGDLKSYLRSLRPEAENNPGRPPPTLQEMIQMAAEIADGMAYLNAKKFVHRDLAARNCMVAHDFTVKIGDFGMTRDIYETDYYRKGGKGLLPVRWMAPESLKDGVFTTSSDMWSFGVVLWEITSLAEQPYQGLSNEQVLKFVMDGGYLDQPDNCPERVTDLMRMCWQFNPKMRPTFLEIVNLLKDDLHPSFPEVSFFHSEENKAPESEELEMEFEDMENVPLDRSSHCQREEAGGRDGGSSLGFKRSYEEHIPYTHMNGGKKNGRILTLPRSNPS
# Chain of NEK6 (human) (Q9HC98 whole entry, looked up): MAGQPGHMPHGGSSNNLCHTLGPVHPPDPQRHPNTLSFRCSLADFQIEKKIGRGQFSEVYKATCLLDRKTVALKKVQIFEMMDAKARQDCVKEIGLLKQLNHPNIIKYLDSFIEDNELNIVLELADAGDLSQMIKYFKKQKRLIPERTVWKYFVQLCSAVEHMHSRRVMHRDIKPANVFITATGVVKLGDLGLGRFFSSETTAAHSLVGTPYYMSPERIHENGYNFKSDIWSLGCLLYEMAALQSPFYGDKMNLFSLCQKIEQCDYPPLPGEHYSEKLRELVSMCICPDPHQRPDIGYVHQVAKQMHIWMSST
# Chain of MAP2K1 (human) (Q02750 whole entry, looked up): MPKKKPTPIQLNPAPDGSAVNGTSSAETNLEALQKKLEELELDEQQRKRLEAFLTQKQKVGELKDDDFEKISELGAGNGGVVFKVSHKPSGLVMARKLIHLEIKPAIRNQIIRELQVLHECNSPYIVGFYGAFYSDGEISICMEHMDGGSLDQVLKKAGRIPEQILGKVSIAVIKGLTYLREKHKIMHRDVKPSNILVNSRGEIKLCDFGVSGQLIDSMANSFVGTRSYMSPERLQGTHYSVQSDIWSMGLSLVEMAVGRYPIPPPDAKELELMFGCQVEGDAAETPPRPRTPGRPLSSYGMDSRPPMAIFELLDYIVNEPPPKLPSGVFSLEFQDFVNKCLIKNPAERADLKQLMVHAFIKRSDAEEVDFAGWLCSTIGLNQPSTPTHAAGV
# Chain of NEK2 (human) (P51955 whole entry, looked up): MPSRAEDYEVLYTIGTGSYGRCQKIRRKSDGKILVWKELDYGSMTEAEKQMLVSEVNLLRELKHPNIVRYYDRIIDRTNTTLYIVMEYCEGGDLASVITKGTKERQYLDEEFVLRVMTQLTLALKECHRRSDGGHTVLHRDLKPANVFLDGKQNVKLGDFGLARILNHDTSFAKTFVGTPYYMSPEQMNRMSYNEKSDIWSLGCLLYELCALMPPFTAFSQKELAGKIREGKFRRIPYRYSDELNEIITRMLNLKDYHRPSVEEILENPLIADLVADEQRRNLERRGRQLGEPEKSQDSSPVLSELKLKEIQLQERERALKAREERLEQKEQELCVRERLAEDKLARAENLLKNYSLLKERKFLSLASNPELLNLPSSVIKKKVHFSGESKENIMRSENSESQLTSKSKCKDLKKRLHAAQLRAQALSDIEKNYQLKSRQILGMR
# Chain of DYRK2 (human) (Q92630 whole entry, looked up): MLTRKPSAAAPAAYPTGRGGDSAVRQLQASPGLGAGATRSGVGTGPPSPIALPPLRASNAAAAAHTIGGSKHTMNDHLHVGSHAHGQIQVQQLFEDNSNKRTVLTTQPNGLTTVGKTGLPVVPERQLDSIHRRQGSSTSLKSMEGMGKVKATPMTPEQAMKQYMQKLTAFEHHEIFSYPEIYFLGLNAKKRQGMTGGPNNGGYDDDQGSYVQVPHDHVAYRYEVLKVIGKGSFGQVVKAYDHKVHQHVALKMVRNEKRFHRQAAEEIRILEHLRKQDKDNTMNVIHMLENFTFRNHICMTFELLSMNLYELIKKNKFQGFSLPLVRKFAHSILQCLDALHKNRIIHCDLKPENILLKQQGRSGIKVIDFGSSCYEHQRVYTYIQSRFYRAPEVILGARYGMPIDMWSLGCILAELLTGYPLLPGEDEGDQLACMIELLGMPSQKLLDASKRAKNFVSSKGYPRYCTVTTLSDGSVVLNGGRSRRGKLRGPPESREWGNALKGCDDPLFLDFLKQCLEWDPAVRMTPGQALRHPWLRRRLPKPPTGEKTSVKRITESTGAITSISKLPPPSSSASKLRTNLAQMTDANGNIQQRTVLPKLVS
# Chain of MARK1 (human) (Q9P0L2 whole entry, looked up): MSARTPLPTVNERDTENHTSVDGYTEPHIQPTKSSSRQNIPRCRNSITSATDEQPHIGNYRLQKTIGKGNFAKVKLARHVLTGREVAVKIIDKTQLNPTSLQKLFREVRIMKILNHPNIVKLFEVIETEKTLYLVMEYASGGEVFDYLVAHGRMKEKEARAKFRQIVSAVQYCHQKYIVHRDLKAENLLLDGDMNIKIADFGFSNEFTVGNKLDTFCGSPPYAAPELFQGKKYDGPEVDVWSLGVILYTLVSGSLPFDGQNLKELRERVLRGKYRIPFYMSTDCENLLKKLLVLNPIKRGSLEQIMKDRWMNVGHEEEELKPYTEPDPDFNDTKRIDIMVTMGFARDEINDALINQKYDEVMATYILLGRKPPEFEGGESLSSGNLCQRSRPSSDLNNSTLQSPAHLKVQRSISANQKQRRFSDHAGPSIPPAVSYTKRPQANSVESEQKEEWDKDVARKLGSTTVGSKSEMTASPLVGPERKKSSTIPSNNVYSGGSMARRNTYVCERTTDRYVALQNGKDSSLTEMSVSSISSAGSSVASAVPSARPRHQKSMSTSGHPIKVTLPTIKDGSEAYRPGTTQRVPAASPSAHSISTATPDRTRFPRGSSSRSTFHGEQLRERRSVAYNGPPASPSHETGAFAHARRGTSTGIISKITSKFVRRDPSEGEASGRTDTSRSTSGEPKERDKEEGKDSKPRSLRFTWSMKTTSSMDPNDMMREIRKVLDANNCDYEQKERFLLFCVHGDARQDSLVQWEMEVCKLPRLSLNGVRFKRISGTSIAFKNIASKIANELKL
# Chain of MAPKAPK2 (human) (P49137 whole entry, looked up): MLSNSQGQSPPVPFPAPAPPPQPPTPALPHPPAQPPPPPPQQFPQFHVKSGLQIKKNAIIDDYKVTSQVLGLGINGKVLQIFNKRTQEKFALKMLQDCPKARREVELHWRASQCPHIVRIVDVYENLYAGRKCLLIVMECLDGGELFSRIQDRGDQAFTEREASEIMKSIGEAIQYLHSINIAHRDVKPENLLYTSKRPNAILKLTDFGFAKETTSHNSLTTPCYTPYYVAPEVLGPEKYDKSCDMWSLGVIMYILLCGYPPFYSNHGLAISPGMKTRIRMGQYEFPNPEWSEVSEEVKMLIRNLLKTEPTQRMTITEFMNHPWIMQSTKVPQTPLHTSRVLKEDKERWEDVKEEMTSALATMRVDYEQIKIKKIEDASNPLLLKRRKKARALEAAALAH
# Chain of CaMK1 (human) (Q14012 whole entry, looked up): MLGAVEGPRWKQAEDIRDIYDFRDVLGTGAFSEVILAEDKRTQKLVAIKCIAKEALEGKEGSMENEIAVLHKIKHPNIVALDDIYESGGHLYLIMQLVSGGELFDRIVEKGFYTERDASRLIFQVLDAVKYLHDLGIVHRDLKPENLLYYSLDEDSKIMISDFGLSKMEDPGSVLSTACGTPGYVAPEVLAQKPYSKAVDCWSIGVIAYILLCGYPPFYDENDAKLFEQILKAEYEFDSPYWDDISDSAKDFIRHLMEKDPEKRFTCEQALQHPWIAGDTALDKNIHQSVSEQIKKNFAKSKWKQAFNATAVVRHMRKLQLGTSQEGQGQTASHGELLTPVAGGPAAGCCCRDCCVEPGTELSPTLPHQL
structure (smiles),measurement,setting,value
CCn1c(-c2nonc2N)nc2cncc(CNC3CCNCC3)c21,residual activity,EPHA4 (human); compound 1.0 µM,109%
same,residual activity,EPHB2 (human); compound 0.1 µM,115%
same,residual activity,EPHB2 (human); compound 1.0 µM,91%
same,residual activity,EPHB2 (human); compound 10.0 µM,87%
same,residual activity,PAK7 (human); compound 0.1 µM,93%
same,residual activity,PAK7 (human); compound 1.0 µM,100%
same,residual activity,PAK7 (human); compound 10.0 µM,98%
same,residual activity,MST4 (human); compound 0.1 µM,91%
same,residual activity,MST4 (human); compound 1.0 µM,81%
same,residual activity,MST4 (human); compound 10.0 µM,91%
same,residual activity,RIPK2 (human); compound 0.1 µM,86%
same,residual activity,RIPK2 (human); compound 1.0 µM,77%
same,residual activity,RIPK2 (human); compound 10.0 µM,77%
same,residual activity,JAK2 JH1 JH2 (human); compound 0.1 µM,108%
same,residual activity,JAK2 JH1 JH2 (human); compound 1.0 µM,103%
same,residual activity,JAK2 JH1 JH2 (human); compound 10.0 µM,110%
same,residual activity,INSR (human); compound 0.1 µM,99%
same,residual activity,INSR (human); compound 1.0 µM,99%
same,residual activity,INSR (human); compound 10.0 µM,99%
same,residual activity,PRKCA (human); compound 0.1 µM,84%
same,residual activity,PRKCA (human); compound 1.0 µM,70%
same,residual activity,PRKCA (human); compound 10.0 µM,30%
same,residual activity,ERBB4 (human); compound 0.1 µM,112%
same,residual activity,ERBB4 (human); compound 1.0 µM,104%
same,residual activity,MINK1 (human); compound 0.1 µM,107%
same,residual activity,MINK1 (human); compound 1.0 µM,96%
same,residual activity,MINK1 (human); compound 10.0 µM,72%
same,residual activity,PHKG1 (human); compound 0.1 µM,101%
same,residual activity,PHKG1 (human); compound 1.0 µM,101%
same,residual activity,PHKG1 (human); compound 10.0 µM,75%
same,residual activity,SRPK1 (human); compound 0.1 µM,94%
same,residual activity,SRPK1 (human); compound 1.0 µM,99%
same,residual activity,SRPK1 (human); compound 10.0 µM,86%
same,residual activity,PRKACA (human); compound 0.1 µM,79%
same,residual activity,PRKACA (human); compound 1.0 µM,33%
same,residual activity,PRKACA (human); compound 10.0 µM,8%
same,residual activity,NEK2 (human); compound 0.1 µM,98%
same,residual activity,NEK2 (human); compound 1.0 µM,93%
same,residual activity,NEK2 (human); compound 10.0 µM,106%
same,residual activity,MAP2K1 (human); compound 0.1 µM,85%
same,residual activity,MAP2K1 (human); compound 1.0 µM,103%
same,residual activity,MAP2K1 (human); compound 10.0 µM,78%
same,residual activity,LCK (mouse); compound 0.1 µM,102%
same,residual activity,LCK (mouse); compound 1.0 µM,99%
same,residual activity,LCK (mouse); compound 10.0 µM,94%
same,residual activity,EPHA2 (human); compound 0.1 µM,119%
same,residual activity,EPHA2 (human); compound 1.0 µM,114%
same,residual activity,EPHA2 (human); compound 10.0 µM,103%
same,residual activity,BTK (human); compound 0.1 µM,92%
same,residual activity,BTK (human); compound 1.0 µM,93%
same,residual activity,BTK (human); compound 10.0 µM,112%
same,residual activity,HIPK3 (human); compound 0.1 µM,99%
same,residual activity,HIPK3 (human); compound 1.0 µM,95%
same,residual activity,HIPK3 (human); compound 10.0 µM,84%
same,residual activity,BRSK1 (human); compound 0.1 µM,91%
same,residual activity,BRSK1 (human); compound 1.0 µM,81%
same,residual activity,BRSK1 (human); compound 10.0 µM,41%
same,residual activity,MKNK1 (human); compound 0.1 µM,91%
same,residual activity,MKNK1 (human); compound 1.0 µM,100%
same,residual activity,MKNK1 (human); compound 10.0 µM,90%
same,residual activity,NUAK1 (human); compound 0.1 µM,101%
same,residual activity,NUAK1 (human); compound 1.0 µM,91%
same,residual activity,NUAK1 (human); compound 10.0 µM,59%
same,residual activity,INSRR (human); compound 0.1 µM,71%
same,residual activity,INSRR (human); compound 1.0 µM,49%
same,residual activity,INSRR (human); compound 10.0 µM,21%
same,residual activity,MAPK15 (human); compound 0.1 µM,95%
same,residual activity,MAPK15 (human); compound 1.0 µM,62%
same,residual activity,MAPK15 (human); compound 10.0 µM,27%
same,residual activity,RPS6KA5 KD1 KD2 (human); compound 0.1 µM,22%
same,residual activity,RPS6KA5 KD1 KD2 (human); compound 1.0 µM,5%
same,residual activity,RPS6KA5 KD1 KD2 (human); compound 10.0 µM,1%
same,residual activity,CSK (human); compound 0.1 µM,89%
same,residual activity,CSK (human); compound 1.0 µM,95%
same,residual activity,CSK (human); compound 10.0 µM,98%
same,residual activity,MARK1 (human); compound 0.1 µM,85%
same,residual activity,MARK1 (human); compound 1.0 µM,95%
same,residual activity,MARK1 (human); compound 10.0 µM,71%
same,residual activity,CDK2 CCNA2 (human); compound 0.1 µM,83%
same,residual activity,CDK2 CCNA2 (human); compound 1.0 µM,81%
same,residual activity,CDK2 CCNA2 (human); compound 10.0 µM,56%
same,residual activity,DYRK2 (human); compound 0.1 µM,87%
same,residual activity,DYRK2 (human); compound 1.0 µM,89%
same,residual activity,DYRK2 (human); compound 10.0 µM,53%
same,residual activity,NEK6 (human); compound 0.1 µM,103%
same,residual activity,NEK6 (human); compound 1.0 µM,101%
same,residual activity,NEK6 (human); compound 10.0 µM,102%
same,residual activity,CAMKK2 (human); compound 1.0 µM,128%
same,residual activity,CAMKK2 (human); compound 10.0 µM,105%
same,residual activity,CaMK1 (human); compound 0.1 µM,119%
same,residual activity,CaMK1 (human); compound 1.0 µM,109%
same,residual activity,CaMK1 (human); compound 10.0 µM,109%
same,residual activity,MAPKAPK2 (human); compound 0.1 µM,112%
same,residual activity,MAPKAPK2 (human); compound 1.0 µM,104%
same,residual activity,MAPKAPK2 (human); compound 10.0 µM,102%
same,residual activity,PRKAA1 or PRKAA2 (rat); compound 0.1 µM,95%
same,residual activity,PRKAA1 or PRKAA2 (rat); compound 1.0 µM,82%
same,residual activity,PRKAA1 or PRKAA2 (rat); compound 10.0 µM,29%
same,residual activity,MARK2 (human); compound 0.1 µM,99%
same,residual activity,MARK2 (human); compound 1.0 µM,92%
same,residual activity,MARK2 (human); compound 10.0 µM,63%
NC(=O)c1c(NC(=O)C2CC2)sc2c1CCCC2,residual activity,EPHA4 (human); compound 1.0 µM,114%
same,residual activity,EPHA4 (human); compound 10.0 µM,53%
same,residual activity,EPHB2 (human); compound 1.0 µM,104%
same,residual activity,EPHB2 (human); compound 10.0 µM,62%
same,residual activity,PAK7 (human); compound 1.0 µM,100%
same,residual activity,PAK7 (human); compound 10.0 µM,54%
same,residual activity,MST4 (human); compound 1.0 µM,100%
same,residual activity,MST4 (human); compound 10.0 µM,57%
same,residual activity,RIPK2 (human); compound 1.0 µM,86%
same,residual activity,RIPK2 (human); compound 10.0 µM,36%
same,residual activity,JAK2 JH1 JH2 (human); compound 1.0 µM,104%
same,residual activity,JAK2 JH1 JH2 (human); compound 10.0 µM,60%
same,residual activity,INSR (human); compound 1.0 µM,101%
same,residual activity,INSR (human); compound 10.0 µM,97%
same,residual activity,PRKCA (human); compound 1.0 µM,93%
same,residual activity,PRKCA (human); compound 10.0 µM,86%
same,residual activity,ERBB4 (human); compound 1.0 µM,106%
same,residual activity,ERBB4 (human); compound 10.0 µM,98%
same,residual activity,MINK1 (human); compound 1.0 µM,80%
same,residual activity,MINK1 (human); compound 10.0 µM,37%
same,residual activity,PHKG1 (human); compound 1.0 µM,108%
same,residual activity,PHKG1 (human); compound 10.0 µM,62%
same,residual activity,SRPK1 (human); compound 1.0 µM,97%
same,residual activity,SRPK1 (human); compound 10.0 µM,93%
same,residual activity,PRKACA (human); compound 1.0 µM,100%
same,residual activity,PRKACA (human); compound 10.0 µM,102%
same,residual activity,NEK2 (human); compound 1.0 µM,99%
same,residual activity,NEK2 (human); compound 10.0 µM,92%
same,residual activity,MAP2K1 (human); compound 1.0 µM,92%
same,residual activity,MAP2K1 (human); compound 10.0 µM,88%
same,residual activity,LCK (mouse); compound 1.0 µM,98%
same,residual activity,LCK (mouse); compound 10.0 µM,77%
same,residual activity,EPHA2 (human); compound 1.0 µM,87%
same,residual activity,EPHA2 (human); compound 10.0 µM,52%
same,residual activity,BTK (human); compound 1.0 µM,90%
same,residual activity,BTK (human); compound 10.0 µM,68%
same,residual activity,HIPK3 (human); compound 1.0 µM,89%
same,residual activity,HIPK3 (human); compound 10.0 µM,102%
same,residual activity,BRSK1 (human); compound 1.0 µM,97%
same,residual activity,BRSK1 (human); compound 10.0 µM,90%
same,residual activity,MKNK1 (human); compound 1.0 µM,97%
same,residual activity,MKNK1 (human); compound 10.0 µM,77%
same,residual activity,NUAK1 (human); compound 1.0 µM,75%
same,residual activity,NUAK1 (human); compound 10.0 µM,30%
same,residual activity,INSRR (human); compound 1.0 µM,97%
same,residual activity,INSRR (human); compound 10.0 µM,52%
same,residual activity,MAPK15 (human); compound 1.0 µM,106%
same,residual activity,MAPK15 (human); compound 10.0 µM,67%
same,residual activity,RPS6KA5 KD1 KD2 (human); compound 1.0 µM,108%
same,residual activity,RPS6KA5 KD1 KD2 (human); compound 10.0 µM,108%
same,residual activity,CSK (human); compound 1.0 µM,96%
same,residual activity,CSK (human); compound 10.0 µM,88%
same,residual activity,MARK1 (human); compound 1.0 µM,93%
same,residual activity,MARK1 (human); compound 10.0 µM,67%
same,residual activity,CDK2 CCNA2 (human); compound 1.0 µM,89%
same,residual activity,CDK2 CCNA2 (human); compound 10.0 µM,48%
same,residual activity,DYRK2 (human); compound 1.0 µM,109%
same,residual activity,DYRK2 (human); compound 10.0 µM,86%
same,residual activity,NEK6 (human); compound 1.0 µM,107%
same,residual activity,NEK6 (human); compound 10.0 µM,93%
same,residual activity,CAMKK2 (human); compound 1.0 µM,106%
same,residual activity,CAMKK2 (human); compound 10.0 µM,48%
same,residual activity,CaMK1 (human); compound 1.0 µM,98%
same,residual activity,CaMK1 (human); compound 10.0 µM,70%
same,residual activity,MAPKAPK2 (human); compound 1.0 µM,98%
same,residual activity,PRKAA1 or PRKAA2 (rat); compound 1.0 µM,103%
same,residual activity,PRKAA1 or PRKAA2 (rat); compound 10.0 µM,86%
same,residual activity,MARK2 (human); compound 1.0 µM,97%
